Experimental data published in paper PMC9968196, “Synthesis, Characterization, and Biological Evaluation of Meldrum’s Acid Derivatives: Dual Activity and Molecular Docking Study” (Pharmaceuticals, 2023).
Converted amounts (≈) assume the structure as drawn.

What was measured:
[1] = test system: human cervical adenocarcinoma HeLa; assay: Cytotoxicity, MTT assay; assay type: cell-based; conditions: for IC50: Homo sapiens, HeLa, 72 h; for selectivity index (SI): HeLa cells versus MRC-5
Experimental: (§1) Cell line cells were obtained from the American Type Culture Collection. Human cervical adenocarcinoma HeLa, human chronic myelogenous leukemia K562, non-small cell lung carcinoma A549, human colon carcinoma LS174, pancreatic carcinoma PaCa-2, and normal human lung fibroblast MRC-5 cell lines were grown in RPMI-1640 medium with 10% fetal bovine serum, L-glutamine, and penicillin–streptomycin solution. Cells were plated into the 96-well cell culture plates. Cells were incubated at 37 °C in CO2 incubator. Adherent cell lines were incubated for 20 h before addition of tested compounds. Two hours before addition of compounds, K562 cells were seeded into 96-well plates. The tested compounds were applied at five different concentrations ranging from 10 to 300 µM for 72 h. Thereafter, the survival of cells was determined by MTT assay in accordance with the protocol established by Mosmann and Ohno and Abe. The solution of MTT was added to blank and cell samples. The plates were incubated for 5 h at 37 °C, and then 10% solution of sodium dodecyl sulfate was added to the wells. The absorbance was measured at 570 nm using Thermo Scientific Multiskan EX plate reader. Three independent experiments were performed.

[2] = test system: human colon carcinoma LS174; assay: Cytotoxicity, MTT assay; assay type: cell-based
Experimental: as §1

[3] = test system: pancreatic carcinoma PaCa-2; assay: Cytotoxicity, MTT assay; assay type: cell-based; conditions: Homo sapiens, 72 h
Experimental: as §1

[4] = test system: human chronic myelogenous leukemia K562; assay: Cytotoxicity, MTT assay; assay type: cell-based; conditions: 72 h
Experimental: as §1

[5] = test system: Escherichia coli (ATCC 25922); assay: Antimicrobial activity, broth microdilution MIC with resazurin; assay type: cell-based; conditions: ATCC25922, E. coli, 37 °C, 24 h, average of three independent experiments
Experimental: (§2) The following strains of bacteria were used as test organisms in this study: Staphylococcus aureus (ATCC 25923), Bacillus subtilis (ATCC 6633), Bacillus cereus (ATCC 10987), and Escherichia coli (ATCC 25922). All the bacteria used were obtained from the American Type Culture Collection (ATCC). Cultures were stored at 4 °C and subcultured every 15 days. The minimal inhibitory concentration (MIC) was determined by the broth microdilution method using 96-well micro-titer plates. A series of dilutions of the tested compounds was used in the experiment against every microorganism. The starting solutions of tested compounds were obtained by measuring off a certain quantity of the compounds and dissolving it in 5% DMSO. The MIC was determined with resazurin. The inoculated plates were incubated at 37 °C for 24 h. Resazurin is an oxidation–reduction indicator used for the evaluation of microbial growth. It is a blue non-fluorescent dye that becomes pink and fluorescent when reduced to resorufin by oxidoreductases within viable cells. The boundary dilution without any changing in color of resazurin was defined as the MIC for the tested microorganism at a given concentration. As a positive control of growth inhibition, streptomycin was used. A 5% DMSO solution was used as a negative control for the influence of the solvents.

[6] = Cytotoxicity, MTT assay, normal cells; assay type: cell-based, human; conditions: human, MRC-5 normal lung fibroblast cells; MRC-5 normal fibroblast; 72 h
Experimental: as §1

[7] = test system: non-small cell lung carcinoma A549; assay: Cytotoxicity, MTT assay; assay type: cell-based, human; conditions: for IC50: Homo sapiens, A549, 72 h; for selectivity index (SI): A549 cells versus MRC-5
Experimental: as §1

[8] = test system: Staphylococcus aureus (ATCC 25923); assay: Antimicrobial activity, broth microdilution MIC with resazurin; assay type: cell-based; conditions: ATCC25923, S. aureus, 37 °C, 24 h, average of three independent experiments
Experimental: as §2

[9] = test system: Bacillus subtilis (ATCC 6633); assay: as above; assay type: cell-based; conditions: ATCC6633, B. subtilis, 37 °C, 24 h, average of three independent experiments
Experimental: as §2

[10] = test system: Bacillus cereus (ATCC 10987); assay: as above; assay type: cell-based; conditions: ATCC10987, B. cereus, 37 °C, 24 h, average of three independent experiments
Experimental: as §2

[11] = test system: normal human lung fibroblast MRC-5; assay: Cytotoxicity, MTT assay, normal cells; assay type: cell-based; conditions: MRC-5
Experimental: as §1

[12] = set-up: method as in PMID 34019615, PMID 20000793; conditions: cited from earlier work
Gyrase B of E. Coli = test system: Gyrase B of E. Coli; set-up: method as in PMID 31257079; conditions: read-out: inhibitory activity IC50; cited from earlier work

| MIC [5] [µM] | MIC [8] [µM] | MIC [9] [µM] | MIC [10] [µM] | SMILES | IC50 [1] [µM] | IC50 ([2]; Homo sapiens, LS174, 72 h) [µM] | IC50 [3] [µM] | IC50 [4] [µM] | IC50 at 72 h [6] [µM] | IC50 [7] [µM] | selectivity index (SI) [1] | selectivity index (SI) [7] | toxicity towards MRC-5 cell lines (in words) [11] | IC50 ([2]; 72 h) [µM] | pKa [12] | IC50 (Gyrase B of E. Coli) [µM] |
| --- | --- | --- | --- | --- | --- | --- | --- | --- | --- | --- | --- | --- | --- | --- | --- | --- |
| 89.5 (≈ 29.9 µg/mL) | 210 (≈ 70.4 µg/mL) | 175 (≈ 58.6 µg/mL) | 174 (≈ 58.2 µg/mL) | CCC(=O)Oc1ccc(C=C2C(=O)OC(C)(C)OC2=O)cc1OC [3b, 2′-methoxy-4′-((2,2-dimethyl-4,6-dioxo-1,3-dioxan-5-ylidene)methyl)phenyl propionate] | 102 ± 2.14 | 105 ± 4.62 | 153 ± 4.29 | 74.5 ± 1.73 | > 200 | 41.2 ± 1.74 | – | – | – | – | – | – |
| 38.1 (≈ 15.6 µg/mL) | 145 (≈ 59.6 µg/mL) | 133 (≈ 54.6 µg/mL) | 80.5 (≈ 33 µg/mL) | COc1cc(C=C2C(=O)OC(C)(C)OC2=O)ccc1OCCOCCOCCO [3e, 5-(4′-(2″-(2′″-(2″″-hydroxyethoxy)ethoxy)ethoxy)-3′-methoxybenzylidene)-2,2-dimethyl-1,3-dioxane-4,6-dione] | 37.3 ± 1.2 | 38.1 ± 0.41 | 182 ± 3.94 | 80.5 ± 2.36 | 111 ± 2.19 | 25.9 ± 0.46 | 4.0 | 2.6 | – | – | – | – |
| 37.5 (≈ 13.6 µg/mL) | 73.9 (≈ 26.8 µg/mL) | 48.3 (≈ 17.5 µg/mL) | 42.3 (≈ 15.3 µg/mL) | CCCCCCOc1ccc(C=C2C(=O)OC(C)(C)OC2=O)cc1OC [3f, 5-(4′-hexyloxy-3′-methoxybenzylidene)-2,2-dimethyl-1,3-dioxane-4,6-dione] | 63.5 ± 0.45 | 45.3 ± 0.58 | 110 ± 1.75 | 71.9 ± 1.65 | 144 ± 2.84 | 39.6 ± 0.74 | – | – | – | – | – | – |
| 36.1 (≈ 13.6 µg/mL) | 60.4 (≈ 22.7 µg/mL) | 45.2 (≈ 17 µg/mL) | 37.5 (≈ 14.1 µg/mL) | CCCCCCCOc1ccc(C=C2C(=O)OC(C)(C)OC2=O)cc1OC [3g, 5-(4′-heptyloxy-3′-methoxybenzylidene)-2,2-dimethyl-1,3-dioxane-4,6-dione] | – | 47.1 ± 1.69 | 94.2 ± 1.09 | 69.5 ± 1.37 | 139 ± 3.07 | 35.1 ± 0.27 | – | – | – | – | – | – |
| 14.7 (≈ 5.74 µg/mL) | 54.2 (≈ 21.2 µg/mL) | 31.5 (≈ 12.3 µg/mL) | 64.8 (≈ 25.3 µg/mL) | CCCCCCCCOc1ccc(C=C2C(=O)OC(C)(C)OC2=O)cc1OC [3h, 5-(3′-methoxy-4′-octyloxybenzylidene)-2,2-dimethyl-1,3-dioxane-4,6-dione] | 18.2 ± 0.11 | 36.5 ± 0.24 | 90.5 ± 0.83 | 73.5 ± 1.43 | 72.8 ± 0.77 | 27.4 ± 0.78 | 2.9 | 4.3 | moderate toxicity | – | – | – |
| 12.4 (≈ 5.19 µg/mL) | 50.9 (≈ 21.3 µg/mL) | 29.5 (≈ 12.3 µg/mL) | 41.5 (≈ 17.4 µg/mL) | CCCCCCCCCCOc1ccc(C=C2C(=O)OC(C)(C)OC2=O)cc1OC [3i, 5-(4′-decyloxy-3′-methoxybenzylidene)-2,2-dimethyl-1,3-dioxane-4,6-dione] | 15.7 ± 0.28 | 20.8 | 58.2 ± 0.74 | 63.7 ± 2.49 | 74.6 ± 1.46 | 21.8 ± 0.91 | 4.8 | – | moderate toxicity | 30.5 ± 0.35 | – | – |

The next lines start with the compound.

| SMILES | MIC [5] [µM] | MIC [8] [µM] | MIC [9] [µM] | MIC [10] [µM] | IC50 [1] [µM] | IC50 ([2]; Homo sapiens, LS174, 72 h) [µM] | IC50 [3] [µM] | IC50 [4] [µM] | IC50 at 72 h [6] [µM] | IC50 [7] [µM] | selectivity index (SI) [1] | selectivity index (SI) [7] | toxicity towards MRC-5 cell lines (in words) [11] | IC50 ([2]; 72 h) [µM] | pKa [12] | IC50 (Gyrase B of E. Coli) [µM] |
| --- | --- | --- | --- | --- | --- | --- | --- | --- | --- | --- | --- | --- | --- | --- | --- | --- |
| COc1cc(C=C2C(=O)OC(C)(C)OC2=O)cc([N+](=O)[O-])c1O [3a, 5-(4′-hydroxy-3′-methoxy-5′-nitrobenzylidene)-2,2-dimethyl-1,3-dioxane-4,6-dione] | 115 (≈ 37.3 µg/mL) | – | – | – | 126 ± 1.45 | > 200 | > 200 | 151 ± 3.47 | > 200 | > 200 | – | – | – | – | – | – |
| COc1cc(C=C2C(=O)OC(C)(C)OC2=O)ccc1OC(=O)C1CC1 [3c, 2′-methoxy-4′-((2,2-dimethyl-4,6-dioxo-1,3-dioxan-5-ylidene)methyl)phenyl cyclopropanecarboxylate] | 85.1 (≈ 29.5 µg/mL) | 206 (≈ 71.3 µg/mL) | 180 (≈ 62.5 µg/mL) | 172 (≈ 59.4 µg/mL) | 84.6 ± 1.84 | 99.6 ± 1.44 | 172 ± 5.25 | 70.2 ± 1.68 | > 200 | 45.7 ± 1.65 | – | – | – | – | – | – |
| COc1ccc(C(=O)Oc2ccc(C=C3C(=O)OC(C)(C)OC3=O)cc2OC)cc1 [3d, 2′-methoxy-4′-((2,2-dimethyl-4,6-dioxo-1,3-dioxan-5-ylidene)methyl)phenyl 4-methoxybenzoate] | 74.8 (≈ 30.8 µg/mL) | 200 (≈ 82.3 µg/mL) | 169 (≈ 69.7 µg/mL) | 168 (≈ 69.4 µg/mL) | 94.5 ± 3.15 | 118.9 ± 0.95 | 145 ± 2.92 | 105.1 ± 0.92 | > 200 | 36.2 ± 0.39 | – | – | – | – | – | – |
| CC1(C)OC(=O)CC(=O)O1 [Meldrum’s acid] | – | – | – | – | – | – | – | – | – | – | – | – | – | – | 4.9 | – |
| CCNC(=O)Nc1cc(-n2cc(Br)cn2)c(C(=O)Nc2cccnc2)cn1 [P3C, 4-(4-bromo-1H-pyrazol-1-yl)-6-[(ethylcarbamoyl)amino]-N-(pyridine-3-yl)pyridine-3-carboxamide] | – | – | – | – | – | – | – | – | – | – | – | – | – | – | – | 0.037 |
| [H]/N=C(/N)N[C@H]1[C@H](O)[C@@H](O)[C@H](O[C@@H]2O[C@@H](C)[C@](O)(C=O)[C@H]2O[C@@H]2O[C@@H](CO)[C@H](O)[C@@H](O)[C@@H]2NC)[C@@H](N/C(N)=N\[H])[C@@H]1O [streptomycin, reference compound] | 0.01 (≈ 0.00582 µg/mL) | 0.005 (≈ 0.00291 µg/mL) | 0.003 (≈ 0.00174 µg/mL) | 0.003 (≈ 0.00174 µg/mL) | – | – | – | – | – | – | – | – | – | – | – | – |
